Laboratory results taken from patent US9611249B2, “1H-indazole-3-carboxamide compounds as glycogen synthase kinase 3 beta inhibitors” (AZIENDE CHIMICHE RIUNITE ANGELINI FRANCESCO A.C.R.A.F. …, priority 2012, dated 2017).
pIC50: −log10 of the molar value.

What was measured:
Type in all cases: biochemical
c-Met kinase (h) = c-Met kinase (h) (Homo sapiens (Human), UniProt P08581); assay: Kinase selectivity panel: c-Met kinase (h); conditions: 10 μM in duplicate, read-out: % inhibition of control values
Experimental: (§1) (a) Compounds 1 and 2 were tested against a panel of 60 kinases in order to assess their selectivity. The assays were chosen taking into consideration the diversity of assay families.
(§2) Tested kinases were representative of following kinase sub-families: • protein-serine/threonine kinases; • protein-tyrosine kinases; • other kinases; and • atypical kinases.
(§3) Human recombinant kinases were incubated in the presence of specific peptide substrates plus ATP for different times (10, 15, 30, 60 or 90 minutes) at 22° C. Phosphorylated substrate was detected by LANCE or HTRF technology (CISBIO, MA, USA). The compounds were tested at 10 μM in duplicate.
(§4) The results are expressed as a percentage of inhibition of control specific activity obtained in the presence of the test compounds and are reported in the following Table 5.
(§5) (b) Compounds 3, 8, 29 and 31 were tested against the same panel of 60 kinases under the same conditions described above for compounds 1 and 2.
(§6) The results are expressed as a percent of inhibition of control specific activity obtained in the presence of the test compounds and are reported in the following Table 6.

FGFR1 kinase (h) = FGFR1 kinase (h) (Homo sapiens (Human), UniProt P11362); assay: Kinase selectivity panel: FGFR1 kinase (h); conditions: 10 μM in duplicate, read-out: % inhibition of control values
Experimental: as §1, §2, §3, §4, §5, §6

IRK (h) (InsR) = IRK (h) (InsR) (Homo sapiens (Human), UniProt P06213); assay: Kinase selectivity panel: IRK (h) (InsR); conditions: 10 μM in duplicate, read-out: % inhibition of control values
Experimental: as §1, §2, §3, §4, §5, §6

EphB4 kinase (h) = EphB4 kinase (h) (Homo sapiens (Human), UniProt P54760); assay: Kinase selectivity panel: EphB4 kinase (h); conditions: 10 μM in duplicate, read-out: % inhibition of control values
Experimental: as §1, §2, §3, §4, §5, §6

HGK (h) (MAP4K4) = HGK (h) (MAP4K4) (Homo sapiens (Human), UniProt O95819); assay: Kinase selectivity panel: HGK (h) (MAP4K4); conditions: 10 μM in duplicate, read-out: % inhibition of control values
Experimental: as §1, §2, §3, §4, §5, §6

CK1alpha (h) = CK1alpha (h) (Homo sapiens (Human), UniProt P48729); assay: Kinase selectivity panel: CK1alpha (h); conditions: 10 μM in duplicate, read-out: % inhibition of control values
Experimental: as §1, §2, §3, §4, §5, §6

TRKA (h) = TRKA (h) (Homo sapiens (Human), UniProt P04629); assay: Kinase selectivity panel: TRKA (h); conditions: 10 μM in duplicate, read-out: % inhibition of control values
Experimental: as §1, §2, §3, §4, §5, §6

MAPKAPK2 (h) = MAPKAPK2 (h) (Homo sapiens (Human), UniProt P49137); assay: Kinase selectivity panel: MAPKAPK2 (h); conditions: 10 μM in duplicate, read-out: % inhibition of control values
Experimental: as §1, §2, §3, §4, §5, §6

Src kinase (h) = Src kinase (h) (Homo sapiens (Human), UniProt P12931); assay: Kinase selectivity panel: Src kinase (h); conditions: 10 μM in duplicate, read-out: % inhibition of control values
Experimental: as §1, §2, §3, §4, §5, §6

DCAMKL1 (h) = DCAMKL1 (h) (Homo sapiens (Human), UniProt O15075); assay: Kinase selectivity panel: DCAMKL1 (h); conditions: 10 μM in duplicate, read-out: % inhibition of control values
Experimental: as §1, §2, §3, §4, §5, §6

Akt1/PKBalpha (h) = Akt1/PKBalpha (h) (Homo sapiens (Human), UniProt P31749); assay: Kinase selectivity panel: Akt1/PKBalpha (h); conditions: 10 μM in duplicate, read-out: % inhibition of control values
Experimental: as §1, §2, §3, §4, §5, §6

JAK1 (h) = JAK1 (h) (Homo sapiens (Human), UniProt P23458); assay: Kinase selectivity panel: JAK1 (h); conditions: 10 μM in duplicate, read-out: % inhibition of control values
Experimental: as §1, §2, §3, §4, §5, §6

Fyn kinase (h) = Fyn kinase (h) (Homo sapiens (Human), UniProt P06241); assay: Kinase selectivity panel: Fyn kinase (h); conditions: 10 μM in duplicate, read-out: % inhibition of control values
Experimental: as §1, §2, §3, §4, §5, §6

MNK2 (h) = MNK2 (h) (Homo sapiens (Human), UniProt Q9HBH9); assay: Kinase selectivity panel: MNK2 (h); conditions: 10 μM in duplicate, read-out: % inhibition of control values
Experimental: as §1, §2, §3, §4, §5, §6

IRAK4 (h) = IRAK4 (h) (Homo sapiens (Human), UniProt Q9NWZ3); assay: Kinase selectivity panel: IRAK4 (h); conditions: 10 μM in duplicate, read-out: % inhibition of control values
Experimental: as §1, §2, §3, §4, §5, §6

GSK3beta (h) = GSK3beta (h) (Homo sapiens (Human), UniProt P49841); assay: Kinase selectivity panel: GSK3beta (h); conditions: GSK3beta (h); 10 μM in duplicate; read-out: % inhibition of control values
Experimental: as §1, §2, §3, §4, §6

CDK5/p35 (h) = CDK5/p35 (h) (Homo sapiens (Human), UniProt Q00535); assay: Kinase selectivity panel: CDK5/p35 (h); conditions: 10 μM in duplicate, read-out: % inhibition of control values
Experimental: as §1, §2, §3, §4, §5, §6

ERK2 (h) (P42mapk) = ERK2 (h) (P42mapk) (Homo sapiens (Human), UniProt P28482); assay: Kinase selectivity panel: ERK2 (h) (P42mapk); conditions: 10 μM in duplicate, read-out: % inhibition of control values
Experimental: as §1, §2, §3, §4, §5, §6

IGF1R kinase (h) = IGF1R kinase (h) (Homo sapiens (Human), UniProt P08069); assay: Kinase selectivity panel: IGF1R kinase (h); conditions: 10 μM in duplicate, read-out: % inhibition of control values
Experimental: as §1, §2, §3, §4, §5, §6

human GSK-3β = human GSK-3β (Homo sapiens (Human), UniProt P49841); assay: Activity on human GSK-3β, LANCE substrate phosphorylation assay; conditions: for inhibition at 10 µM: in duplicate, first screening assay; for pIC50: compounds 1 to 15, LANCE assay, five concentrations 100 μM to 10 nM
Experimental: Activity on human GSK-3β was assessed using the following methods (according to Meijer et al., Chem. Biol., 2003-10:1255-1266).
In a first screening assay, compounds were tested in duplicate at a concentration of 10 μM.
Human recombinant enzyme GSK-3β was incubated for 90 minutes at 22° C. in the presence of compounds or vehicle in a reaction buffer containing ATP plus 100 nM unphosphorylated specific substrate peptide (Ulight-[…] K-amide). Substrate phosphorylation was measured by LANCE technology (PerkinElmer, Conn., USA).
In a second assay, the same compounds were assayed at five concentrations ranging from 100 μM to 10 nM with ten-fold dilutions in duplicate.
The IC50 values (concentration causing a half maximal inhibition of control specific activity), reported in table 4, were determined by non-linear regression analysis of the inhibition curves generated with mean replicate values using Hill equation curve fitting.

PKCalpha (h) = PKCalpha (h) (Homo sapiens (Human), UniProt P17252); assay: Kinase selectivity panel: PKCalpha (h); conditions: 10 μM in duplicate, read-out: % inhibition of control values
Experimental: as §1, §2, §3, §4, §5, §6

Abl kinase (h) = Abl kinase (h) (Homo sapiens (Human), UniProt P00519); assay: Kinase selectivity panel: Abl kinase (h); conditions: 10 μM in duplicate, read-out: % inhibition of control values
Experimental: as §1, §2, §3, §4, §5, §6

Ret kinase (h) = Ret kinase (h) (Homo sapiens (Human), UniProt P07949); assay: Kinase selectivity panel: Ret kinase (h); conditions: 10 μM in duplicate, read-out: % inhibition of control values
Experimental: as §1, §2, §3, §4, §5, §6

EphA4 kinase (h) = EphA4 kinase (h) (Homo sapiens (Human), UniProt P54764); assay: Kinase selectivity panel: EphA4 kinase (h); conditions: 10 μM in duplicate, read-out: % inhibition of control values
Experimental: as §1, §2, §3, §4, §5, §6

p38delta kinase (h) = p38delta kinase (h) (Homo sapiens (Human), UniProt O15264); assay: Kinase selectivity panel: p38delta kinase (h); conditions: 10 μM in duplicate, read-out: % inhibition of control values
Experimental: as §1, §2, §3, §4, §5, §6

Pim2 kinase (h) = Pim2 kinase (h) (Homo sapiens (Human), UniProt Q9P1W9); assay: Kinase selectivity panel: Pim2 kinase (h); conditions: 10 μM in duplicate, read-out: % inhibition of control values
Experimental: as §1, §2, §3, §4, §5, §6

DLK1 (h) (MAP3K12) = DLK1 (h) (MAP3K12) (Homo sapiens (Human), UniProt Q12852); assay: Kinase selectivity panel: DLK1 (h) (MAP3K12); conditions: 10 μM in duplicate, read-out: % inhibition of control values
Experimental: as §1, §2, §3, §4, §5, §6

CDK2 (h) (cycA) = CDK2 (h) (cycA) (Homo sapiens (Human), UniProt P24941); assay: Kinase selectivity panel: CDK2 (h) (cycA); conditions: 10 μM in duplicate, read-out: % inhibition of control values
Experimental: as §1, §2, §3, §4, §5, §6

human GSK-3β, sequence (P49841 whole entry): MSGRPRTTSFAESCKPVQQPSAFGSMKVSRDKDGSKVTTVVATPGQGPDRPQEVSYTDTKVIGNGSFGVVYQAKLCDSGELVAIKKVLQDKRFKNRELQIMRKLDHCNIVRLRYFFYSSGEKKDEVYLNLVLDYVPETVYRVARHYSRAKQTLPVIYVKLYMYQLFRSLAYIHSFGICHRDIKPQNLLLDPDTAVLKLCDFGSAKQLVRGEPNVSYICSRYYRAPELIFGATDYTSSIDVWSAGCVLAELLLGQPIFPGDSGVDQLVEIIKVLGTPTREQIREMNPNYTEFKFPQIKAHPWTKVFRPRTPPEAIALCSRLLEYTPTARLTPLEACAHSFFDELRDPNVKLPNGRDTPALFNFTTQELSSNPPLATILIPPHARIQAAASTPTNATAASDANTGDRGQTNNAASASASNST
TRKA (h), sequence (P04629 33-796): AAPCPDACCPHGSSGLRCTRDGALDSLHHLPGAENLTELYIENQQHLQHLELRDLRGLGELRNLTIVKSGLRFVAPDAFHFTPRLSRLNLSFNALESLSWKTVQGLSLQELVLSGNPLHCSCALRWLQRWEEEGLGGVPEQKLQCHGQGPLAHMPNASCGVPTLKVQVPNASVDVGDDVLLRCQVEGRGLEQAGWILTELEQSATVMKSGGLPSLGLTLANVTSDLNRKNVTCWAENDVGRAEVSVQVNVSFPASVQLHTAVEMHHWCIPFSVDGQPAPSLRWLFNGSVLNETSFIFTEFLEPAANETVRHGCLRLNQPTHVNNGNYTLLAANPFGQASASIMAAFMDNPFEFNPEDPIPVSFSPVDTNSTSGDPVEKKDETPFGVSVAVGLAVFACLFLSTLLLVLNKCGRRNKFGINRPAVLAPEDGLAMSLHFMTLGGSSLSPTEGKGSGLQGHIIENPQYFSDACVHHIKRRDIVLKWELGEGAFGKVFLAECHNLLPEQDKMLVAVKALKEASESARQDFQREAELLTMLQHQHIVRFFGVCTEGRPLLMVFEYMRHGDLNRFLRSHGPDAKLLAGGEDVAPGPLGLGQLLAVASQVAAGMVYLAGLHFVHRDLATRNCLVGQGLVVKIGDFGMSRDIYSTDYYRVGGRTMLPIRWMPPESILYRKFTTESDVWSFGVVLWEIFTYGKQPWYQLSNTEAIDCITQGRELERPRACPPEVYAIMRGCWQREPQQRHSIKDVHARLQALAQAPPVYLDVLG
p38delta kinase (h), sequence (O15264 whole entry): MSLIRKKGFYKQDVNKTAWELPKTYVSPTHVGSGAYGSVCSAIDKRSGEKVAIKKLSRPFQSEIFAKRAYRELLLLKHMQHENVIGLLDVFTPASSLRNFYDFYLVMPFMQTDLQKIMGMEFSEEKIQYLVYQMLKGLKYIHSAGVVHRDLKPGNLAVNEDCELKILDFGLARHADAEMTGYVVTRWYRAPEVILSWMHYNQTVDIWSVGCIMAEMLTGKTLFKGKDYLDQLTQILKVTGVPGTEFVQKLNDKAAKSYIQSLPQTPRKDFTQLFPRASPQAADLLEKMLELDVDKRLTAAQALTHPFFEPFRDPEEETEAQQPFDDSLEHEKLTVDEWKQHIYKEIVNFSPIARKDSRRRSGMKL
EphB4 kinase (h), sequence (P54760 16-987): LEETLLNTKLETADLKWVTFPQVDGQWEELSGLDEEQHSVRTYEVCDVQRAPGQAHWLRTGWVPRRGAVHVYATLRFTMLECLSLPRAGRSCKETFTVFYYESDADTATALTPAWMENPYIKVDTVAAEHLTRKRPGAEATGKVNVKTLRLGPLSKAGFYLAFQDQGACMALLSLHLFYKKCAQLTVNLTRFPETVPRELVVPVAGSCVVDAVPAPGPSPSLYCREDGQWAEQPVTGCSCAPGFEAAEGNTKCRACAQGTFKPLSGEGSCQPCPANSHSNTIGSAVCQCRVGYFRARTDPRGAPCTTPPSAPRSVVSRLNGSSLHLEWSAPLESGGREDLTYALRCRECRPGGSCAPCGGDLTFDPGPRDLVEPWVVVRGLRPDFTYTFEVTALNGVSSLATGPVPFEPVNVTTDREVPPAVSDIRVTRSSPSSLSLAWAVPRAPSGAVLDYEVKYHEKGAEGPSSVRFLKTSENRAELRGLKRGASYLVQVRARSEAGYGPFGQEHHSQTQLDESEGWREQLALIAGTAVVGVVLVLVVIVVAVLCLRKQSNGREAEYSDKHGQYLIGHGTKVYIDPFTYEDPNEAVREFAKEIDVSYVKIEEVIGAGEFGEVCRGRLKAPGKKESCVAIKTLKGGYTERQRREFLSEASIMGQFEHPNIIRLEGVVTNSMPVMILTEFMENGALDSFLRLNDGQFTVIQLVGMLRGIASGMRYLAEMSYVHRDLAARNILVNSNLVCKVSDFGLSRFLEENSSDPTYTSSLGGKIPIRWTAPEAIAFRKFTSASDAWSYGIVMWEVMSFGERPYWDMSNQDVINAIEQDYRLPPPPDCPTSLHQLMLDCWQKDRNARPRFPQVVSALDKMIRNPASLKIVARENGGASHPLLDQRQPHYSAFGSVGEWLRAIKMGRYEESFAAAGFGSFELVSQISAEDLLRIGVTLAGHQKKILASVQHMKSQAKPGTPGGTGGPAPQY
Fyn kinase (h), sequence (P06241 whole entry): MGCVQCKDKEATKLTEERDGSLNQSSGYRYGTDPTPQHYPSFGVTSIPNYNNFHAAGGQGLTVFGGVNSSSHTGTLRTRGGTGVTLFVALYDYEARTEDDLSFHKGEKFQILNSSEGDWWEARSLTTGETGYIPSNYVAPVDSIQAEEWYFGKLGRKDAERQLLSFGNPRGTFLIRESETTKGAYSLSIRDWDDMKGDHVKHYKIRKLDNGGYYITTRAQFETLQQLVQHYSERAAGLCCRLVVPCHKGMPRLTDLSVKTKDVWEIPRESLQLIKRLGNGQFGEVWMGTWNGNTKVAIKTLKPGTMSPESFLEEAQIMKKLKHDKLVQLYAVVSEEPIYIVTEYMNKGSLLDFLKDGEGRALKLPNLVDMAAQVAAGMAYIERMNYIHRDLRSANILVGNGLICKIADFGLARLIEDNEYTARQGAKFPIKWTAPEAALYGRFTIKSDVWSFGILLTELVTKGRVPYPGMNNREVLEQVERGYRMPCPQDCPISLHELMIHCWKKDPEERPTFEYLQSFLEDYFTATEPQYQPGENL
CDK5/p35 (h), sequence (Q00535 whole entry): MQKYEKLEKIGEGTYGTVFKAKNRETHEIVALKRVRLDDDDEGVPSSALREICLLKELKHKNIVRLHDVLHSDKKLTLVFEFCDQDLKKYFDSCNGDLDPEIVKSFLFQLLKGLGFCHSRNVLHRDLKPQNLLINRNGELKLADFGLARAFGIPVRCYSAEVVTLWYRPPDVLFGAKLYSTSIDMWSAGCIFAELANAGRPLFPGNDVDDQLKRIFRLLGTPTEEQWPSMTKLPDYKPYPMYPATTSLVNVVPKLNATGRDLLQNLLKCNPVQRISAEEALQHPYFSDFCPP
CDK5/p35 (h), sequence (Q15078 whole entry partner): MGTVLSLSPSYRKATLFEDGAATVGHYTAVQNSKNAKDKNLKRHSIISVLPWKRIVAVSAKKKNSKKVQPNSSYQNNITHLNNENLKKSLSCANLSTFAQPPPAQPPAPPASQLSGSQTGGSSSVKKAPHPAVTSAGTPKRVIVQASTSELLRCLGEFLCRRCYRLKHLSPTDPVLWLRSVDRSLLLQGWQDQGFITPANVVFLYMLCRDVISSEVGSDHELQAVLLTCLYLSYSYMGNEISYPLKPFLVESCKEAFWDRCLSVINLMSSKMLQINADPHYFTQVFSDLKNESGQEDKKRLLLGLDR
MAPKAPK2 (h), sequence (P49137 whole entry): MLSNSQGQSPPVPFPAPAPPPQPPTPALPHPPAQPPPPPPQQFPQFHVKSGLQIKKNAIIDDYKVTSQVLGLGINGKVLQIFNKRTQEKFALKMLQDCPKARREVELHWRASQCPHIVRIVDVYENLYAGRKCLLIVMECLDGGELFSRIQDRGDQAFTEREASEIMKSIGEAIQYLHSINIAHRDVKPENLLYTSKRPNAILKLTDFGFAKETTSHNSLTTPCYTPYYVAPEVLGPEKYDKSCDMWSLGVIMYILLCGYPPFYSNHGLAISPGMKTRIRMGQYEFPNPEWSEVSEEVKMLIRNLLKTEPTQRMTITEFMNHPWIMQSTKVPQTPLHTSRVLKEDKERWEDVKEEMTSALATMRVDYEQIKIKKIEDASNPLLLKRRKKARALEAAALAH
GSK3beta (h), sequence (P49841 whole entry): as the sequence (P49841 whole entry) above

SMILES | inhibition at 10 µM (c-Met kinase (h)) [%] | inhibition at 10 µM (FGFR1 kinase (h)) [%] | inhibition at 10 µM (IRK (h) (InsR)) [%] | inhibition at 10 µM (EphB4 kinase (h)) [%] | inhibition at 10 µM (HGK (h) (MAP4K4)) [%] | inhibition at 10 µM (CK1alpha (h)) [%] | inhibition at 10 µM (TRKA (h)) [%] | inhibition at 10 µM (MAPKAPK2 (h)) [%] | inhibition at 10 µM (Src kinase (h)) [%] | inhibition at 10 µM (DCAMKL1 (h)) [%] | inhibition at 10 µM (Akt1/PKBalpha (h)) [%] | inhibition at 10 µM (JAK1 (h)) [%] | inhibition at 10 µM (Fyn kinase (h)) [%] | inhibition at 10 µM (MNK2 (h)) [%] | inhibition at 10 µM (IRAK4 (h)) [%] | inhibition at 10 µM (GSK3beta (h)) [%] | inhibition at 10 µM (CDK5/p35 (h)) [%] | inhibition at 10 µM (ERK2 (h) (P42mapk)) [%] | inhibition at 10 µM (IGF1R kinase (h)) [%] | inhibition at 10 µM (human GSK-3β) [%] | further results
COc1ccc2[nH]nc(C(=O)NCC3CCN(CC(=O)O)CC3)c2c1 [Compound 1, [4-({[(5-methoxy-1H-indazol-3-yl)-carbonyl]amino}methyl)piperidin-1-yl]acetic acid] | 3 | 0 | 0 | 2 | 8 | 0 | 1 | 0 | 1 | 0 | 0 | 0 | 0 | 0 | 0 | 94 | 19 | 58 | 0 | 92 | pIC50 (human GSK-3β): 6.17; inhibition at 10 µM (PKCalpha (h)): 0%; inhibition at 10 µM (Abl kinase (h)): 0%; inhibition at 10 µM (Ret kinase (h)): 0%; inhibition at 10 µM (EphA4 kinase (h)): 0%; inhibition at 10 µM (p38delta kinase (h)): 0%; inhibition at 10 µM (Pim2 kinase (h)): 3%; inhibition at 10 µM (DLK1 (h) (MAP3K12)): 0%; inhibition at 10 µM (CDK2 (h) (cycA)): 18%
COCCN1CCC(CNC(=O)c2n[nH]c3ccc(OC)cc23)CC1 [Compound 2, 5-methoxy-N-{[1-(2-methoxyethyl)-piperidin-4-yl]methyl}-1H-indazole-3-carboxamide] | 0 | 0 | 0 | 17 | 23 | 12 | 0 | 0 | 6 | 3 | 4 | 0 | 3 | 0 | 8 | 90 | 13 | 46 | 0 | 85 | pIC50 (human GSK-3β): 6.06; inhibition at 10 µM (PKCalpha (h)): 0%; inhibition at 10 µM (Abl kinase (h)): 0%; inhibition at 10 µM (Ret kinase (h)): 0%; inhibition at 10 µM (EphA4 kinase (h)): 0%; inhibition at 10 µM (p38delta kinase (h)): 0%; inhibition at 10 µM (Pim2 kinase (h)): 4%; inhibition at 10 µM (DLK1 (h) (MAP3K12)): 0%; inhibition at 10 µM (CDK2 (h) (cycA)): 11%
